Test results from the NIST ThermoML archive (doi:10.1021/je800664z).

Assay: xn = mol fraction of the nth substance listed
Conditions: for surface tension liquid-gas: Capillary rise; for mass density / viscosity: 101 kPa, Liquid

C1COCO1 [1,3-dioxolane] + CC(C)CC(C)(C)C
Conditions	mass density, 288.15 K [kg/m3]	mass density, 298.15 K [kg/m3]	mass density, 308.15 K [kg/m3]	surface tension liquid-gas, 288.15 K [mN/m]	surface tension liquid-gas, 298.15 K [mN/m]	surface tension liquid-gas, 308.15 K [mN/m]	viscosity, 288.15 K [mPa·s]	viscosity, 298.15 K [mPa·s]	viscosity, 308.15 K [mPa·s]
x1 = 0.0501	704.03	695.41	686.72	19.37	18.57	17.58	0.529	0.48	0.431
x1 = 0.1	712.38	703.47	694.59	19.55	18.75	17.78	0.528	0.478	0.432
x1 = 0.15	721.22	712.11	703.08	19.7	18.92	17.93	0.527	0.478	0.432
x1 = 0.2	730.61	721.42	712.28	19.83	19.07	18.08	0.527	0.479	0.433
x1 = 0.25	740.66	731.37	722.16	19.97	19.2	18.23	0.528	0.479	0.433
x1 = 0.3	751.51	742.15	732.81	20.08	19.33	18.37	0.532	0.48	0.433
x1 = 0.35	763.25	753.76	744.31	20.22	19.47	18.53	0.536	0.483	0.434
x1 = 0.4	775.92	766.31	756.72	20.38	19.63	18.72	0.541	0.487	0.438
x1 = 0.45	789.66	779.89	770.11	20.57	19.82	18.93	0.547	0.492	0.442
x1 = 0.5	804.59	794.63	784.66	20.78	20.03	19.15	0.554	0.498	0.447
x1 = 0.55	820.88	810.69	800.5	21.02	20.3	19.42	0.561	0.504	0.453
x1 = 0.6	838.7	828.25	817.8	21.32	20.6	19.72	0.568	0.511	0.46
x1 = 0.65	858.32	847.56	836.8	21.63	20.93	20.05	0.576	0.519	0.467
x1 = 0.7	879.84	868.87	857.72	22	21.32	20.47	0.585	0.527	0.475
x1 = 0.75	903.63	892.42	880.96	22.43	21.8	20.95	0.595	0.536	0.484
x1 = 0.8	929.95	918.53	906.76	23	22.4	21.57	0.605	0.546	0.494
x1 = 0.85	959.26	947.66	935.7	23.85	23.32	22.6	0.617	0.557	0.505
x1 = 0.9	992.11	980.35	968.03	25.35	24.9	24.22	0.632	0.571	0.515
x1 = 0.95	1029.19	1017.39	1004.78	28.33	27.6	26.78	0.651	0.584	0.526
x1 = 1	1071.24	1059.29	1046.85	34.37	32.55	30.67	0.667	0.596	0.535
